Assay results reported in ChEMBL document CHEMBL1201862, “PubChem BioAssay data set” (2004).
The source made the active and inactive calls.

How the values were obtained:
Type in all cases: functional
[1] = target: T1, Short transient receptor potential channel 4 (Mus musculus, UniProt Q9QUQ5); test: calcium entry via TRPC4 opening agents – cell-based, HEK293 TRPC4/mu-opioid, Fluo-4 calcium, dose response (AID 434937)
T1 sequence (Q9QUQ5 whole entry): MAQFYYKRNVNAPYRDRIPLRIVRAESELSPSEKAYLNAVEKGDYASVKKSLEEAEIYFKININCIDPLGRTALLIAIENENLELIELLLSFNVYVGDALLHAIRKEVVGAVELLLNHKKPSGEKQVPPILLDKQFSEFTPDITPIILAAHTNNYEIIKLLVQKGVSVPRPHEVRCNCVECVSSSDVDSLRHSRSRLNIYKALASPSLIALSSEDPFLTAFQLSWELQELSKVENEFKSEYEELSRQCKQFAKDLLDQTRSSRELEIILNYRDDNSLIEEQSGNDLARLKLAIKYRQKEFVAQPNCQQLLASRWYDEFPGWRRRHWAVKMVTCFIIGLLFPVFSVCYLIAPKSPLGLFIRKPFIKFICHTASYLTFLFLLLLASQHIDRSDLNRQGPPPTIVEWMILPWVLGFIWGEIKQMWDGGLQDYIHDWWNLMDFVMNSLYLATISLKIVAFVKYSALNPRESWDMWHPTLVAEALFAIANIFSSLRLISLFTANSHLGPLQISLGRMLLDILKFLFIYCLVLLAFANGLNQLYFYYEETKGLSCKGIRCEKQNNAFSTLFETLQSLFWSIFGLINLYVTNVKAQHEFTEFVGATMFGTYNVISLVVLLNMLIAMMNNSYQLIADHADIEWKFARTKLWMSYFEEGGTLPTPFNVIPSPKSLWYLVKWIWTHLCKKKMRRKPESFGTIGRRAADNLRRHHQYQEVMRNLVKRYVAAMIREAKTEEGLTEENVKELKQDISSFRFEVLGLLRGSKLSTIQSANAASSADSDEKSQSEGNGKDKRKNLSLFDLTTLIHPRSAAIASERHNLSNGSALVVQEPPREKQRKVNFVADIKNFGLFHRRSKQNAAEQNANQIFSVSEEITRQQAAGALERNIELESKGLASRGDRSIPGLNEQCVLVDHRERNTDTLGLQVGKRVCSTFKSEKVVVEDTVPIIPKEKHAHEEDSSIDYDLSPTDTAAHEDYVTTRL

SUMO-activating enzyme = SUMO-activating enzyme (Homo sapiens, UniProt Q9UBT2); test: blockers of UBC9-mediated SUMO conjugation – biochemical, AlphaScreen, SUMOylation inhibitor project, confirmation (AID 2018)
[2] = target: T2, Lysine-specific demethylase 4C (Homo sapiens, UniProt Q9H3R0); test: inhibition of JMJD2C H3K9me3 demethylation – biochemical, DELFIA europium, cherry-picked samples, dose response (AID 488835)
T2 sequence (Q9H3R0 whole entry): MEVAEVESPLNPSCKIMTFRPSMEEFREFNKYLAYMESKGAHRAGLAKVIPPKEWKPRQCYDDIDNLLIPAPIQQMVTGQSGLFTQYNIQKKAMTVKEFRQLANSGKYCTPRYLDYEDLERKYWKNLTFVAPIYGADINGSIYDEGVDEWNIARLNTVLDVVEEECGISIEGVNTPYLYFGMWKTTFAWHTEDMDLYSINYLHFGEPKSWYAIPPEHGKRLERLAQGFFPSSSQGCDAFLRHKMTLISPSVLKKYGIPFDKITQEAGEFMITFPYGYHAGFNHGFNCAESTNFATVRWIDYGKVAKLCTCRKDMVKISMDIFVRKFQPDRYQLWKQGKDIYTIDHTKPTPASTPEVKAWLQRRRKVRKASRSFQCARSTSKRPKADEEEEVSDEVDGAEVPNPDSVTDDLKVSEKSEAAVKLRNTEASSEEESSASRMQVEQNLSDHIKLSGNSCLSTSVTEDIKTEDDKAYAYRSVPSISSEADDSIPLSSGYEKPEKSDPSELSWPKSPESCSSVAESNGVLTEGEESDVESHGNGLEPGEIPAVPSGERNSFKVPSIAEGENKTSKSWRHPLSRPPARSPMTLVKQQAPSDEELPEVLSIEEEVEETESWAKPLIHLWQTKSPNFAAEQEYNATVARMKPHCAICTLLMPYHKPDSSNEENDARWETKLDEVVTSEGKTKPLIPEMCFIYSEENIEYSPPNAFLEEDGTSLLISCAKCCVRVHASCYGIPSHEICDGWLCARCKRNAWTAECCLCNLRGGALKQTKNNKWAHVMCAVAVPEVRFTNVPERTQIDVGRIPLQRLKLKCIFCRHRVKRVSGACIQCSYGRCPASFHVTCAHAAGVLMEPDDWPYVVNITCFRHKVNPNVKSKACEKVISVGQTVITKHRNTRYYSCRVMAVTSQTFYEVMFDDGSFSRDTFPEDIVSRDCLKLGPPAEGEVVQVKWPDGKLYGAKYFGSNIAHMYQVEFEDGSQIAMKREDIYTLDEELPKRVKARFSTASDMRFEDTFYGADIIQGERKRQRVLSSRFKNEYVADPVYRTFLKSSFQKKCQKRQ

Hexokinase-1 = target: T3, Hexokinase-1 (Homo sapiens, UniProt P19367); test: HK1 enzyme activation by HKDC1 hits – biochemical, selectivity assay for HKDC1 activator project, dose response (AID 504762)
T3 sequence (P19367 whole entry): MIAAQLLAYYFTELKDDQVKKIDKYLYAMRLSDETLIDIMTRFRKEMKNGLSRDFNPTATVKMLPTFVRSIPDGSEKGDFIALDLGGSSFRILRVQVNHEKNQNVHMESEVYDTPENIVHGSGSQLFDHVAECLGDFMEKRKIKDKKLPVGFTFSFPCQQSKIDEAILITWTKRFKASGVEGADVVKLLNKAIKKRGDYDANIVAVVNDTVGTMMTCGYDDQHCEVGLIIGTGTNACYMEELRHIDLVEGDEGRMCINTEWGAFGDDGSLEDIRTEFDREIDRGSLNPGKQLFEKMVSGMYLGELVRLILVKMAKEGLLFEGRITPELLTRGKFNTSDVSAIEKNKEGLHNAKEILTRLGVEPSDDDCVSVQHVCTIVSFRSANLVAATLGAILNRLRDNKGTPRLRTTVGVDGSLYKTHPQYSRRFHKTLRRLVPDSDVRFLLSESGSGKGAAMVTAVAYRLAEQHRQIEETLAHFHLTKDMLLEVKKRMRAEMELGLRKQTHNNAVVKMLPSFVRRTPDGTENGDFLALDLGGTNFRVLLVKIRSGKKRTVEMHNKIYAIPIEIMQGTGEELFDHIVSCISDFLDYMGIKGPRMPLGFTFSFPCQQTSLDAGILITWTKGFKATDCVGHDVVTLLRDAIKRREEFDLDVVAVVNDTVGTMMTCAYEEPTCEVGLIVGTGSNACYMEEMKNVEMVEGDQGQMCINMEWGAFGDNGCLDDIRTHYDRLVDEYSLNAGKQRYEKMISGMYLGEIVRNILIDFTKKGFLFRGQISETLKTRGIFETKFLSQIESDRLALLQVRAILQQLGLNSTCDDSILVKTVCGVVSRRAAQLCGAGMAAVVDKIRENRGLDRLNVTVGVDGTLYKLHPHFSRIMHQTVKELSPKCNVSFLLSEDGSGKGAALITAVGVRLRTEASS

SUMO-activating enzyme, sequence (Q9UBE0 whole entry): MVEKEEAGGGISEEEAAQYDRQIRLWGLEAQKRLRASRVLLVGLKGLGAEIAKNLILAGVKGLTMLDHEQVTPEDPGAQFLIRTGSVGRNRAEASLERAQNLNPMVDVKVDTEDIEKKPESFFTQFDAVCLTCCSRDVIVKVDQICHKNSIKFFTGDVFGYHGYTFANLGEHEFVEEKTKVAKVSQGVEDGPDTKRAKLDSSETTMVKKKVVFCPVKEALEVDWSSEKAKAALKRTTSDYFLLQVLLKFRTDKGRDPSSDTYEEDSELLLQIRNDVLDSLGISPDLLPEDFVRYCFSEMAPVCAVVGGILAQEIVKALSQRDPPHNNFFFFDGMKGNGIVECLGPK
SUMO-activating enzyme, sequence (Q9UBT2 whole entry): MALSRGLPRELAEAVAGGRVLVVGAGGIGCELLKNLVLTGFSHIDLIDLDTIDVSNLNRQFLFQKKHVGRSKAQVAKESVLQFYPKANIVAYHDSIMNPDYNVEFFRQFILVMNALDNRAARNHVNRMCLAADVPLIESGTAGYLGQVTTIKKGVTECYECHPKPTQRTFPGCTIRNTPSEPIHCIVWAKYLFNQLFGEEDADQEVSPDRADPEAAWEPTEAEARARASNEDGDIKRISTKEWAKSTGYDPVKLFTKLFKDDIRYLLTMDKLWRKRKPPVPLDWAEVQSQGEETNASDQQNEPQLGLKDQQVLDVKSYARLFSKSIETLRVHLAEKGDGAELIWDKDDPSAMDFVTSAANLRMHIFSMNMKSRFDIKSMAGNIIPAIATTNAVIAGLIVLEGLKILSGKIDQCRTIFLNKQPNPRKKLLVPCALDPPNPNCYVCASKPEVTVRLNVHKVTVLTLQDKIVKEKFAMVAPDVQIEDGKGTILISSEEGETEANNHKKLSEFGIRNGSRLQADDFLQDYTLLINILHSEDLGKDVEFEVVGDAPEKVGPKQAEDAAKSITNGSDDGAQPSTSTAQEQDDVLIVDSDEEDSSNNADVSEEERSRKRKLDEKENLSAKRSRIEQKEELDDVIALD

Structure (SMILES): CNC[C@H](Cc1ccccc1)NC[C@@H](Cc1cccc2ccccc12)NCCc1ccc(C)cc1
- EC50 [1]: 9.44 µM (active)

Structure (SMILES): O=C(Cc1ccccc1Cl)NC1(O)C(=O)c2ccccc2C1=O
- IC50 (SUMO-activating enzyme): 5.64 µM (active)
- AC50 [2]: 7.1 µM (active)

Structure (SMILES): CCN1C(=Cc2sc3ccccc3[n+]2C)C=Cc2cccc(C)c21
- EC50 (Hexokinase-1): > 80 µM (inactive)
